Measurements published in patent US20090111997A1, “Method of Generating Amorphous Solid for Water-Insoluble Pharmaceuticals” (priority 2005, published 2009).

Protocol: The term “water insoluble pharmaceutical” means a pharmaceutical active ingredient that is insoluble or nearly insoluble in water with a dose number greater than 1. The dose number is defined as follows:
Dose number=theoretical dose in mg/water solubility×250 ml.
For example, if the theoretical dose of the drug is 20 mg per dose. […] Another example of a water insoluble pharmaceutical includes the compound of Formula I

In the case of `CC[C@H](C)C(=O)O[C@H]1C[C@@H](C)C=C2C=C[C@H](C)[C@H](CC[C@@H]3C[C@@H](O)CC(=O)O3)[C@H]21` [lovastatin], the “dose number (theoretical dose in mg/water solubility×250 ml)” value is reported as > 8.
